# Laboratory results as given in patent US20250114355A1, “TREATING LIVER DISEASE” (Mayo Foundation for Medical Education and Research, priority 2021, published 2025).
# “Also recorded” adds a separate entry of the source.
# Key:
# HHSEC = assay: Colorimetric (XTT) cell viability assay in HHSEC; assay type: cell-based, human; details: for toxicity to HHSEC (ranking): XTT viability, FIG. 33B
# Description: Cell viability assay was performed with a XTT Viability Kit (Cell Signaling Technology, 9095) according to the manufacturer's instructions. HHSEC were seeded in three black-walled 96-well plates (Corning, 3603) with cell density≥12,000 cells per well.
# The cells were incubated for 24 hours at 37° C., 5% CO2 in endothelial growth media (Cell Application Inc, 211-500). After 24 hours, old media was removed and 100 μL of fresh media was added to each well. Drugs were dissolved in DMSO; a 1.1 mM stock solution was made by diluting drug in DPBS (11% DMSO, v/v). The 1.1 mM stock was serially diluted with 3-fold dilutions. DMSO volumes were balanced to 11% DMSO (v/v). A multichannel pipette was used to add 10 μL of drug or control stocks simultaneously (i.e., one column per drug per plate). The final maximum concentration of drug was 100 μM. Plates were incubated for 21 hours at 37° C., 5% CO2. After incubation, 50 μL of XTT solution were added to each well and incubated for three hours to maximize differences in signal. Absorbance was measured at 462 and 620 nm with a spectrophotometer (Molecular Devices, Spectramax Plus 384). Background absorbance at 620 nm was subtracted from maximum peak at 462 nm.
# [1] = test system: CXCL1 and CCL2 mRNA expression; assay: Murine LPS model of mild liver inflammation, qPCR of CXCL1 and CCL2 mRNA; assay type: in vivo; details: mice, drug given one hour before LPS; for CCL2 mRNA expression versus LPS control: several doses
# Description: BRD4 inhibitors were introduced to murine models of mild liver inflammation induced by LPS. The BRD4 inhibitors acted as prophylactic agents to prevent the increased expression of CXCL1 and CCL2. […] RNA extraction was performed with RNeasy kit (Qiagen 74104) from cells and mouse tissue according to the manufacturer's instructions. RNA Quantification was performed with spectrophotometry (NanoDrop, Thermo Scientific). 500 ng of mRNA was used for cDNA synthesis with dNTP and oligo primer using SuperScript™ III (Invitrogen 18080-093) for reverse transcription per the manufacturer's protocol. Real-Time PCR was performed from cDNA using IQ SYBR Green Mix (Biorad 1725121) on the 7500 Real-Time PCR system (Applied Biosystems), according to the manufacturer's instructions. Amplification of GAPDH and B-actin was performed for respective samples as internal controls. Each experiment was done in duplicates.
# BRD4 BD1 = BRD4 BD1 (Homo sapiens, UniProt O60885); assay: BRD4 BD1 affinity (IC50); assay type: binding; details: ratio of BD2 and BD1 IC50
# [2] = test system: CXCL chemokine expression in LSECs; assay: CXCL chemokine expression by qPCR in LSECs with or without TNFα stimulation; assay type: cell-based, human; details: LSECs pretreated with inhibitor
# Description: LSECs were thawed and cultured according to standard cell culture conditions and according to manufacture instruction (ScienCell). Briefly, LSECs are plated at low confluency and cultured in Endothelial cell medium (Cell 211-500). Fresh medium changed every other day and cells are split when close to confluency. For TNFα stimulation experiments, low passage cells were plated at 70% confluency and cultured overnight. Serum starvation was performed by changing cells to low-serum medium (0.5% FBS in basal endothelial medium (Lonza CC-3121)) for 2 hours. Human TNFα at concentration 10 ng/mL was added to low-serum medium and incubated with cells for 90 minutes before cells were collected and assayed for downstream analysis. […] Inhibitors were added at concentrations indicated to low-serum medium, and cells were incubated in inhibitor containing medium for 2 hours. After inhibitor treatment, medium change was performed with TNFα (Peprotech 300-01A) at 10 ng/ml or control low-serum medium for 90 minutes incubation. LSECs were then collected for analysis.
# mRNA levels were quantified by real-time reverse transcription PCR. RNA extraction was performed with RNeasy kit (Qiagen 74104) from cells and mouse tissue according to the manufacturer's instructions. RNA Quantification was performed with spectrophotometry (NanoDrop, Thermo Scientific). […]
# [3] = test system: alcohol/LPS-induced liver inflammation; assay: Multiple alcohol binge with LPS mouse model; assay type: in vivo, mice; details: UMN627 22 mg/kg IP
# Description: mRNA levels were quantified by real-time reverse transcription PCR. RNA extraction was performed with RNeasy kit (Qiagen 74104) from cells and mouse tissue according to the manufacturer's instructions. RNA Quantification was performed with spectrophotometry (NanoDrop, Thermo Scientific). 500 ng of mRNA was used for cDNA synthesis with dNTP and oligo primer using SuperScript™ III (Invitrogen 18080-093) for reverse transcription per the manufacturer's protocol. Real-Time PCR was performed from cDNA using IQ SYBR Green Mix (Biorad 1725121) on the 7500 Real-Time PCR system (Applied Biosystems), according to the manufacturer's instructions. Amplification of GAPDH and B-actin was performed for respective samples as internal controls. Each experiment was done in duplicates.
# Right lobes of all mouse livers were fixed in 10% formalin and embedded in paraffin and cut into 5 μm sections. Slides were deparaffinized and underwent antigen retrieval (IHC-Tek IW-1000). Slides were treated with hydrogen peroxide for 10 minutes before blocking in 5% bovine serum albumin in phosphate-buffered saline (PBS) for 1 hour at room temperature. Samples were then incubated overnight at 4° C. with rabbit anti-MPO antibody (Abcam ab9535) at 1:25. Slides were then blocked with Avidin and Biotin (Vector SP-2001) for 15 minutes each before treatment with biotinylated secondary antibody horse anti-Rabbit (Vector BA-1100) at 1:200 for 1 hour at room temperature. Slides were then treated with
# ABC reagent (Vector PK-7100) for 30 minutes before treatment with DAB reagent (Vector SK-4100) for 5 minutes. Counterstain was performed with hematoxylin stain and dehydrated in ethanol and xylene. Images were acquired using a Zeiss LSM 780 confocal microscope at 10× magnification, 5 images per slide (Carl Zeiss MicroImaging, Jena, Germany).
# Liver sections from the left lobe of all mouse livers were embedded in OCT (Sakura 4583) and flash frozen. Frozen tissue was sectioned into 10 μm slices, fixed in 10% formalin and stained with BODIPY 493/503 (Invitrogen D3922) or Oil-red (Sigma 00625) and counterstained with 4′,6-diamidino-2-phenylindole (DAPI) (Sigma D9542) or hematoxylin, respectively. Representative images were obtained with microscopy in one session under same settings (Carl Zeiss MicroImaging, Jena, Germany), 3 images per slide. The proportion of tissue stained with BODIPY, or Oil-red content was quantified with ImageJ macro commands for standardization. For BODIPY staining, FITC channel intensity was measured across the whole image, and average intensities of images were normalized to the average of all control samples. For Oil Red staining, red staining was quantified above a pre-selected threshold, and average intensities of images were normalized to the average of all control samples. […]
# [4] = among treatment groups, 22 mg/kg
smiles,measurement,setting,value
Cc1cc(C)cc(Oc2cccc(-c3c(C)nnn3C3CCNCC3)n2)c1 [AC4118],toxicity to HHSEC (ranking),HHSEC,least toxic
same,IC50 for chemokine expression (chemokine not specified),[1],< 5 mg/kg
same,CCL2 mRNA expression versus LPS control,[1],significantly reduced CCL2 expression at higher concentrations compared to UMN627
Cc1cc(C)cc(Oc2cccc(-c3c(C)nnn3C3CCN(CCN(C)C)CC3)n2)c1 [AC6027],toxicity to HHSEC (ranking),HHSEC,least toxic
CCc1cc(C)cc(Oc2nccc(-c3c(-c4ccc(C(F)(F)F)cc4)ncn3[C@H]3CCN(CCN(C)C)C3)n2)c1 [9-209],toxicity to HHSEC (ranking),HHSEC,least toxic
Cc1cc(C)cc(Nc2nccc(-c3c(-c4ccc(C(F)(F)F)cc4)ncn3C3CCN(CCCN(C)CCNC(=O)CN4CCC(n5nnc(C)c5-c5cccc(Oc6cc(C)cc(C)c6)n5)CC4)CC3)n2)c1 [9-169],EC50,"HHSEC; Homo sapiens, read-out: EC50, concentration that causes 50% toxicity to HHSEC, XTT, 21 + 3 hours incubation",< 4 µM
Cc1cc(C)cc(Nc2nccc(-c3c(-c4ccc(C(F)(F)F)cc4)ncn3C3CCN(CCN)CC3)n2)c1 [UMN627],affinity for BRD4 BD1 over BRD4 BD2,BRD4 BD1,over 20 fold
same,IC50 for CCL2 mRNA expression,[1],8.8 mg/kg
same,IC50 for CXCL1 mRNA expression,[1],10.9 mg/kg
same,CCL2 mRNA expression versus LPS control,[1],No significant differences were found
same,CXCL chemokine expression in LSECs,[2],showed efficacy in CXCL suppression
same,liver neutrophil infiltration (MPO IHC),[3]; alcohol binges/LPS mice,Attenuated
same,liver CXCL chemokine (and Ly6g) expression by qPCR,"[3]; alcohol binges/LPS mice, 22 mg/kg",attenuated
same,serum ALT levels,[3]; [4],no significant changes; also recorded: did not show statistical difference
same,steatosis (BODIPY 493/503 staining),[3]; [4],no significant changes; also recorded: not significantly correlated
Cc1nnn(C2CCN(CCN(C)C)CC2)c1-c1cccc(Oc2cc(Br)ccc2Br)n1 [AC6026],toxicity to HHSEC (ranking),HHSEC,least toxic
CCc1cc(C)cc(Oc2nccc(-c3c(-c4ccc(C(F)(F)F)cc4)ncn3C3CCN(CCN(C)C)CC3)n2)c1 [9-73],toxicity to HHSEC (ranking),HHSEC,least toxic
